test: Antagonist activity against CRTh2 receptor in human eosinophils assessed as cell shape change after 4 hrs by flow cytometry

| IC50 [nM] | SMILES |
| --- | --- |
| 1.7 | CCOc1ccc(-c2ccc(-c3cc(CC(=O)O)ccc3OC)c(CN(CC)C(=O)C3CC3)c2)cn1 [Sodium [2'-[(cyclopropanecarbonyl-ethyl-amino)-methyl]-4'-(6-ethoxy-pyridin-3-yl)-6-methoxy-biphenyl-3-yl]-acetate] |

test: Antagonist activity against CRTh2 receptor in human eosinophils assessed as cell shape change by flow cytometry

| SMILES | IC50 [nM] |
| --- | --- |
| CCN(Cc1cc(-c2cnn(C)c2)ccc1-c1cc(CC(=O)O)ccc1OC)C(=O)C1CC1 [2-(2'-((N-ethylcyclopropanecarboxamido)methyl)-6-methoxy-4'-(1-methyl-1H-pyrazol-4-yl)biphenyl-3-yl)acetic acid] | 4 |
| CCN(Cc1cc(-c2cnc3ccccc3c2)ccc1-c1cc(CC(=O)O)ccc1OC)C(=O)C1CC1 [2-(2'-((N-ethylcyclopropanecarboxamido)methyl)-6-methoxy-4'-(quinolin-3-yl)biphenyl-3-yl)acetic acid] | 12 |
| CCOc1ccc(-c2ccc(-c3cc(CC(=O)O)ccc3OC)c(CN(CC)C(=O)C3CC3)c2)cn1 [Sodium [2'-[(cyclopropanecarbonyl-ethyl-amino)-methyl]-4'-(6-ethoxy-pyridin-3-yl)-6-methoxy-biphenyl-3-yl]-acetate] | 5 |

Further compounds by falling IC50, results first:

| IC50 [nM] | SMILES |
| --- | --- |
| 23 | CCN(Cc1cc(-c2ccc(F)cn2)ccc1-c1cc(CC(=O)O)ccc1OC)C(=O)C1CC1 [2-(2'-((N-ethylcyclopropanecarboxamido)methyl)-4'-(5-fluoropyridin-2-yl)-6-methoxybiphenyl-3-yl)acetic acid] |
| 18 | CCN(Cc1cc(-c2ncc(OC)cn2)ccc1-c1cc(CC(=O)O)ccc1OC)C(=O)C1CC1 [2-(2'-((N-ethylcyclopropanecarboxamido)methyl)-6-methoxy-4'-(5-methoxypyrimidin-2-yl)biphenyl-3-yl)acetic acid] |
